Results as given in the NIST ThermoML archive (doi:10.1021/je2007764).
Numbers after ± are expanded uncertainties.

Assay: xn = mol fraction of the nth substance listed
Details: Fluid (supercritical or subcritical phases), Buoyancy - hydrostatic balance with magnetic suspension - one sinker

[C-]#[O+] [carbon monoxide] + N#N
mass density (250.04 K, 996.97 kPa, x1 = 0.04999): 13.537 ± 0.017 kg/m3 | mass density (250.04 K, 1999 kPa, x1 = 0.04999): 27.34 ± 0.033 kg/m3 | mass density (250.04 K, 4009.9 kPa, x1 = 0.04999): 55.503 ± 0.068 kg/m3 | mass density (250.04 K, 6016.9 kPa, x1 = 0.04999): 84.044 ± 0.1 kg/m3 | mass density (250.04 K, 16000 kPa, x1 = 0.04999): 220.89 ± 0.27 kg/m3 | mass density (250.05 K, 969.13 kPa, x1 = 0.1002): 13.157 ± 0.016 kg/m3 | mass density (250.05 K, 999.78 kPa, x1 = 0.1002): 13.577 ± 0.017 kg/m3 | mass density (250.05 K, 2004.3 kPa, x1 = 0.1002): 27.416 ± 0.034 kg/m3 | mass density (250.05 K, 3998.8 kPa, x1 = 0.1002): 55.373 ± 0.067 kg/m3 | mass density (250.05 K, 7998.5 kPa, x1 = 0.04999): 112.326 ± 0.14 kg/m3 | mass density (250.05 K, 8999 kPa, x1 = 0.1002): 126.622 ± 0.15 kg/m3 | mass density (250.05 K, 9999.8 kPa, x1 = 0.04999): 140.653 ± 0.17 kg/m3 | mass density (250.05 K, 11001 kPa, x1 = 0.1002): 154.742 ± 0.19 kg/m3 | mass density (250.05 K, 11998 kPa, x1 = 0.04999): 168.354 ± 0.2 kg/m3 | mass density (250.05 K, 13033 kPa, x1 = 0.1002): 182.506 ± 0.22 kg/m3 | mass density (250.05 K, 14004 kPa, x1 = 0.04999): 195.251 ± 0.24 kg/m3 | mass density (250.05 K, 15003 kPa, x1 = 0.1002): 208.407 ± 0.25 kg/m3 | mass density (250.05 K, 17999 kPa, x1 = 0.04999): 245.259 ± 0.3 kg/m3 | mass density (250.05 K, 18474 kPa, x1 = 0.04999): 250.84 ± 0.3 kg/m3 | mass density (250.06 K, 3032.9 kPa, x1 = 0.1002): 41.76 ± 0.051 kg/m3 | mass density (250.06 K, 5043.2 kPa, x1 = 0.1002): 70.198 ± 0.085 kg/m3 | mass density (250.06 K, 5999.3 kPa, x1 = 0.1002): 83.836 ± 0.1 kg/m3 | mass density (250.06 K, 6999.1 kPa, x1 = 0.1002): 98.128 ± 0.12 kg/m3 | mass density (250.06 K, 7998.3 kPa, x1 = 0.1002): 112.391 ± 0.14 kg/m3 | mass density (250.06 K, 9998.8 kPa, x1 = 0.1002): 140.734 ± 0.17 kg/m3 | mass density (250.06 K, 11998 kPa, x1 = 0.1002): 168.471 ± 0.2 kg/m3 | mass density (250.06 K, 13998 kPa, x1 = 0.1002): 195.325 ± 0.24 kg/m3 | mass density (250.06 K, 15999 kPa, x1 = 0.1002): 221.035 ± 0.27 kg/m3 | mass density (250.06 K, 16706 kPa, x1 = 0.1002): 229.835 ± 0.28 kg/m3 | mass density (250.06 K, 18000 kPa, x1 = 0.1002): 245.432 ± 0.3 kg/m3 | mass density (250.06 K, 19962 kPa, x1 = 0.1002): 268.002 ± 0.33 kg/m3 | mass density (275.01 K, 997.91 kPa, x1 = 0.1002): 12.276 ± 0.015 kg/m3 | mass density (275.01 K, 1984.4 kPa, x1 = 0.1002): 24.502 ± 0.03 kg/m3 | mass density (275.01 K, 3998.5 kPa, x1 = 0.1002): 49.641 ± 0.061 kg/m3 | mass density (275.01 K, 5998.9 kPa, x1 = 0.1002): 74.708 ± 0.091 kg/m3 | mass density (275.01 K, 7999.4 kPa, x1 = 0.1002): 99.667 ± 0.12 kg/m3 | mass density (275.02 K, 990.79 kPa, x1 = 0.04999): 12.187 ± 0.015 kg/m3 | mass density (275.02 K, 1996 kPa, x1 = 0.04999): 24.643 ± 0.03 kg/m3 | mass density (275.02 K, 4000.1 kPa, x1 = 0.04999): 49.643 ± 0.061 kg/m3 | mass density (275.02 K, 9999.5 kPa, x1 = 0.1002): 124.305 ± 0.15 kg/m3 | mass density (275.02 K, 11999 kPa, x1 = 0.04999): 148.339 ± 0.18 kg/m3 | mass density (275.02 K, 12004 kPa, x1 = 0.1002): 148.483 ± 0.18 kg/m3 | mass density (275.02 K, 13997 kPa, x1 = 0.04999): 171.74 ± 0.21 kg/m3 | mass density (275.02 K, 14001 kPa, x1 = 0.1002): 171.88 ± 0.21 kg/m3 | mass density (275.02 K, 15997 kPa, x1 = 0.04999): 194.336 ± 0.24 kg/m3 | mass density (275.02 K, 15998 kPa, x1 = 0.1002): 194.459 ± 0.24 kg/m3 | mass density (275.02 K, 17997 kPa, x1 = 0.1002): 216.135 ± 0.26 kg/m3 | mass density (275.02 K, 18198 kPa, x1 = 0.04999): 218.123 ± 0.27 kg/m3 | mass density (275.02 K, 19888 kPa, x1 = 0.1002): 235.72 ± 0.29 kg/m3 | mass density (275.02 K, 19917 kPa, x1 = 0.04999): 235.882 ± 0.29 kg/m3 | mass density (275.03 K, 6038.6 kPa, x1 = 0.04999): 75.17 ± 0.091 kg/m3 | mass density (275.03 K, 8036.6 kPa, x1 = 0.04999): 100.073 ± 0.12 kg/m3 | mass density (275.03 K, 10062 kPa, x1 = 0.04999): 124.995 ± 0.15 kg/m3 | mass density (299.96 K, 1003.8 kPa, x1 = 0.04999): 11.294 ± 0.014 kg/m3 | mass density (299.96 K, 2981.9 kPa, x1 = 0.04999): 33.609 ± 0.041 kg/m3 | mass density (299.96 K, 4997.9 kPa, x1 = 0.04999): 56.34 ± 0.069 kg/m3 | mass density (299.96 K, 6998.3 kPa, x1 = 0.04999): 78.744 ± 0.096 kg/m3 | mass density (299.96 K, 9086.5 kPa, x1 = 0.04999): 101.826 ± 0.12 kg/m3 | mass density (299.96 K, 11000 kPa, x1 = 0.04999): 122.587 ± 0.15 kg/m3 | mass density (299.96 K, 12998 kPa, x1 = 0.04999): 143.747 ± 0.17 kg/m3 | mass density (299.96 K, 14954 kPa, x1 = 0.04999): 163.889 ± 0.2 kg/m3 | mass density (299.97 K, 986.71 kPa, x1 = 0.04999): 11.101 ± 0.014 kg/m3 | mass density (299.97 K, 992.98 kPa, x1 = 0.1002): 11.173 ± 0.014 kg/m3 | mass density (299.97 K, 1001.9 kPa, x1 = 0.1002): 11.274 ± 0.014 kg/m3 | mass density (299.97 K, 1989.8 kPa, x1 = 0.1002): 22.417 ± 0.027 kg/m3 | mass density (299.97 K, 1993.4 kPa, x1 = 0.04999): 22.457 ± 0.028 kg/m3 | mass density (299.97 K, 2993.6 kPa, x1 = 0.1002): 33.744 ± 0.041 kg/m3 | mass density (299.97 K, 3975 kPa, x1 = 0.04999): 44.812 ± 0.055 kg/m3 | mass density (299.97 K, 3998.4 kPa, x1 = 0.1002): 45.092 ± 0.055 kg/m3 | mass density (299.97 K, 5020.8 kPa, x1 = 0.1002): 56.608 ± 0.069 kg/m3 | mass density (299.97 K, 5999.2 kPa, x1 = 0.1002): 67.6 ± 0.082 kg/m3 | mass density (299.97 K, 6020.2 kPa, x1 = 0.04999): 67.811 ± 0.083 kg/m3 | mass density (299.97 K, 7034 kPa, x1 = 0.1002): 79.163 ± 0.096 kg/m3 | mass density (299.97 K, 8024.8 kPa, x1 = 0.04999): 90.132 ± 0.11 kg/m3 | mass density (299.97 K, 9073.7 kPa, x1 = 0.1002): 101.718 ± 0.12 kg/m3 | mass density (299.97 K, 9997.1 kPa, x1 = 0.1002): 111.8 ± 0.14 kg/m3 | mass density (299.97 K, 10017 kPa, x1 = 0.04999): 111.971 ± 0.14 kg/m3 | mass density (299.97 K, 11008 kPa, x1 = 0.1002): 122.717 ± 0.15 kg/m3 | mass density (299.97 K, 11999 kPa, x1 = 0.1002): 133.29 ± 0.16 kg/m3 | mass density (299.97 K, 13003 kPa, x1 = 0.1002): 143.858 ± 0.17 kg/m3 | mass density (299.97 K, 13997 kPa, x1 = 0.1002): 154.176 ± 0.19 kg/m3 | mass density (299.97 K, 14807 kPa, x1 = 0.1002): 162.461 ± 0.2 kg/m3 | mass density (299.97 K, 15370 kPa, x1 = 0.1002): 168.159 ± 0.2 kg/m3 | mass density (299.98 K, 7997.5 kPa, x1 = 0.1002): 89.866 ± 0.11 kg/m3 | mass density (299.98 K, 11889 kPa, x1 = 0.04999): 132.063 ± 0.16 kg/m3 | mass density (299.98 K, 13997 kPa, x1 = 0.04999): 154.113 ± 0.19 kg/m3 | mass density (299.98 K, 15997 kPa, x1 = 0.04999): 174.35 ± 0.21 kg/m3 | mass density (299.98 K, 16109 kPa, x1 = 0.1002): 175.535 ± 0.21 kg/m3 | mass density (299.98 K, 17997 kPa, x1 = 0.04999): 193.879 ± 0.23 kg/m3 | mass density (299.98 K, 17999 kPa, x1 = 0.1002): 193.977 ± 0.23 kg/m3 | mass density (299.98 K, 19830 kPa, x1 = 0.1002): 211.228 ± 0.26 kg/m3 | mass density (299.98 K, 19957 kPa, x1 = 0.04999): 212.314 ± 0.26 kg/m3 | mass density (324.97 K, 13743 kPa, x1 = 0.04999): 137.825 ± 0.17 kg/m3 | mass density (324.98 K, 996.21 kPa, x1 = 0.04999): 10.328 ± 0.013 kg/m3 | mass density (324.98 K, 997.48 kPa, x1 = 0.1002): 10.342 ± 0.013 kg/m3 | mass density (324.98 K, 1970.2 kPa, x1 = 0.1002): 20.421 ± 0.025 kg/m3 | mass density (324.98 K, 1981.3 kPa, x1 = 0.04999): 20.531 ± 0.025 kg/m3 | mass density (324.98 K, 2991.3 kPa, x1 = 0.04999): 30.967 ± 0.038 kg/m3 | mass density (324.98 K, 3998.5 kPa, x1 = 0.1002): 41.357 ± 0.05 kg/m3 | mass density (324.98 K, 4008.5 kPa, x1 = 0.04999): 41.449 ± 0.051 kg/m3 | mass density (324.98 K, 4980 kPa, x1 = 0.04999): 51.417 ± 0.063 kg/m3 | mass density (324.98 K, 5960.8 kPa, x1 = 0.04999): 61.428 ± 0.075 kg/m3 | mass density (324.98 K, 6000 kPa, x1 = 0.1002): 61.847 ± 0.075 kg/m3 | mass density (324.98 K, 7025.8 kPa, x1 = 0.04999): 72.228 ± 0.088 kg/m3 | mass density (324.98 K, 7991 kPa, x1 = 0.04999): 81.935 ± 0.1 kg/m3 | mass density (324.98 K, 7999.4 kPa, x1 = 0.1002): 82.05 ± 0.1 kg/m3 | mass density (324.98 K, 8998.7 kPa, x1 = 0.04999): 91.988 ± 0.11 kg/m3
